Experiments:
[1] = target: hNAMPT protein (Homo sapiens (Human), UniProt P43490); experiment: NAMPT enzyme assay (TR-FRET/HTRF, BodiPY ligand, anti 6His-Tb); format: binding; conditions: for inhibition at 1 µM: NAMPT inhibition at compound concentration 1 μM, read-out: Percent Inhibition; for IC50: NAMPT inhibition, IC50 range class, read-out: IC50
Procedure, shortened: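 Compound or DMSO was incubated for 1 h at room temperature, protected from light, with BodiPY ligand and hNAMPT labelled by terbium anti-6His antibody. The 520 nm to 486 nm emission ratio after 320 nm excitation gave inhibition versus vehicle, from which concentration-response curves yielded IC50.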

[2] = tested on: PC3 cells; experiment: PC3 growth inhibition (Cell-titer glo, 72 hours); format: cell-based; conditions: Homo sapiens, PC-3; compound concentration 1.667 μM; PC3 cells, 72 hours, Cell-titer glo; read-out: Percent Inhibition (PC3 growth inhibition)
Procedure, shortened: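 Compounds in AIM serum-free medium were applied for 72 h at 37 °C, 5% CO2 to PC3 cells plated overnight from RPMI1640 culture. Luminescence after 10 min CellTiter-Glo, normalised to DMSO, gave % viability at 1 μM or 1.667 μM, or GI50/LD50.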

hNAMPT protein, sequence (P43490 whole entry): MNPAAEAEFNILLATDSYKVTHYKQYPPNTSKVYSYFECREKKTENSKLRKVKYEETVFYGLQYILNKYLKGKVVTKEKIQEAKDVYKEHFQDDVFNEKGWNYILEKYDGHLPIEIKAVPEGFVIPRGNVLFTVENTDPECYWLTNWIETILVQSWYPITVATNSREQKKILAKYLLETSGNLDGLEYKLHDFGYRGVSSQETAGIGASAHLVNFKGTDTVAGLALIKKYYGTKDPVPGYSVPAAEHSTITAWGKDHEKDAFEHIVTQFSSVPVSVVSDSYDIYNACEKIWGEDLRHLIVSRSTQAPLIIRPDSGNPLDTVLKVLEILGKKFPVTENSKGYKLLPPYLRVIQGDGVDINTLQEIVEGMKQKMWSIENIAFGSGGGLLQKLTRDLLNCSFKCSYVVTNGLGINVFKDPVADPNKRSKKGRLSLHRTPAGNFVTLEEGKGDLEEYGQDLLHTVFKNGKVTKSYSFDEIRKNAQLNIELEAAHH

SMILES	inhibition at 1 µM [1]	IC50 [1]	inhibition at 1.667 µM [2]
O=C(NCCCc1ncc[nH]1)c1ccc2nc(OCc3nccs3)c(-c3ccc(F)cc3)nc2c1 [Compound I-469, 3-(4-fluorophenyl)-N-[3-(1H-imidazol-2-yl)propyl]-2-(1,3-thiazol-2-ylmethoxy)quinoxaline-6-carboxamide]	98%	< 100 nM	2%
COc1ccc(-c2nc3cc(C(=O)NCCCc4ncc[nH]4)ccc3nc2-c2ccc(F)cc2)cc1F [Compound I-470, 3-(3-fluoro-4-methoxyphenyl)-2-(4-fluorophenyl)-N-[3-(1H-imidazol-2-yl)propyl]quinoxaline-6-carboxamide]	81%	100 to 500 nM	2%
Cc1cc(-c2nc3cc(C(=O)NCCCc4ncc[nH]4)ccc3nc2-c2ccc(F)cc2)ccc1F [Compound I-471, 3-(4-fluoro-3-methylphenyl)-2-(4-fluorophenyl)-N-[3-(1H-imidazol-2-yl)propyl]quinoxaline-6-carboxamide]	> 99%	< 100 nM	2%
Cc1ccc(C#N)cc1-c1nc2cc(C(=O)NCCCc3ncc[nH]3)ccc2nc1-c1ccc(F)cc1 [Compound I-472, 3-(5-cyano-2-methylphenyl)-2-(4-fluorophenyl)-N-[3-(1H-imidazol-2-yl)propyl]quinoxaline-6-carboxamide]	98%	< 100 nM	2%
Cc1ccc(-c2nc3cc(C(=O)NCCCc4ncc[nH]4)ccc3nc2-c2ccc(F)cc2)s1 [Compound I-473, 2-(4-fluorophenyl)-N-[3-(1H-imidazol-2-yl)propyl]-3-(5-methyl-2-thienyl)quinoxaline-6-carboxamide]	85%	100 to 500 nM	3%
O=C(NCCCc1ncc[nH]1)c1ccc2nc(-c3ccc(F)cc3)c(-c3ccc(F)c(F)c3)nc2c1 [Compound I-474, 3-(3,4-difluorophenyl)-2-(4-fluorophenyl)-N-[3-(1H-imidazol-2-yl)propyl]quinoxaline-6-carboxamide]	95%	100 to 500 nM	3%
Cc1nn(C)cc1-c1nc2cc(C(=O)NCCCc3ncc[nH]3)ccc2nc1-c1ccc(F)cc1 [Compound I-475, 3-(1,3-dimethyl-1H-pyrazol-4-yl)-2-(4-fluorophenyl)-N-[3-(1H-imidazol-2-yl)propyl]quinoxaline-6-carboxamide]	77%	100 to 500 nM	3%
O=C(NCCCc1ncc[nH]1)c1ccc2nc(Cc3ccc(Cl)cc3)c(-c3ccc(F)cc3)nc2c1 [Compound I-476]	88%	100 to 500 nM	3%
O=C(NCCCc1ncc[nH]1)c1ccc2nc(-c3ccccc3)c(-c3cccs3)nc2c1 [Compound I-477, N-[3-(1H-imidazol-2-yl)propyl]-2-phenyl-3-(2-thienyl)quinoxaline-6-carboxamide]	> 99%	< 100 nM	2%
CC(C)COc1nc2ccc(C(=O)NCCCc3ncc[nH]3)cc2nc1-c1ccc(F)cc1 [Compound I-478, 3-(4-fluorophenyl)-N-[3-(1H-imidazol-2-yl)propyl]-2-isobutoxyquinoxaline-6-carboxamide]	96%	< 100 nM	2%
Nc1ccc(-c2nc3cc(C(=O)NCCCc4ncc[nH]4)ccc3nc2-c2ccc(F)cc2)cc1 [Compound I-479, 3-(4-aminophenyl)-2-(4-fluorophenyl)-N-[3-(1H-imidazol-2-yl)propyl]quinoxaline-6-carboxamide]	75%	100 to 500 nM	3%
O=C(NCCCc1ncc[nH]1)c1ccc2nc(-c3ccc(F)cc3)c(-c3cc(Cl)ccc3F)nc2c1 [Compound I-480, 3-(5-Chloro-2-fluoro-phenyl)-2-(4-fluorophenyl)-N-[3-(1H-imidazol-2-yl)propyl]quinoxaline-6-carboxamide]	100%	< 100 nM	1%
COc1ccc(F)c(-c2nc3cc(C(=O)NCCCc4ncc[nH]4)ccc3nc2-c2ccc(F)cc2)c1 [Compound I-481, 3-(2-fluoro-5-methoxyphenyl)-2-(4-fluorophenyl)-N-[3-(1H-imidazol-2-yl)propyl]quinoxaline-6-carboxamide]	98%	< 100 nM	2%
CC(C)Oc1nc2ccc(C(=O)NCCCc3c[nH]cn3)cc2nc1-c1ccc(F)cc1 [Compound I-482, 3-(4-Fluorophenyl)-N-[3-(1H-imidazol-4-yl)propyl]-2-isopropoxyquinoxaline-6-carboxamide]	72%	100 to 500 nM	2%
O=C(NCCCc1ncc[nH]1)c1ccc2nc(-c3ccc(Cl)s3)c(-c3ccc(F)cc3)nc2c1 [Compound I-483, 2-(5-chloro-2-thienyl)-3-(4-fluorophenyl)-N-[3-(1H-imidazol-2-yl)propyl]quinoxaline-6-carboxamide]	77%	100 to 500 nM	2%
COc1cccc(-c2nc3cc(C(=O)NCCCc4ncc[nH]4)ccc3nc2-c2ccc(F)cc2)c1 [Compound I-484, 2-(4-fluorophenyl)-N-[3-(1H-imidazol-2-yl)propyl]-3-(3-methoxyphenyl)quinoxaline-6-carboxamide]	99%	< 100 nM	2%
C[C@@H]1CN(c2nc3ccc(C(=O)NCCCc4ccc(N)nc4)cc3nc2-c2ccc(F)cc2)C[C@H](C)O1 [Compound I-485, N-[3-(6-aminopyridin-3-yl)propyl]-2-[cis-2,6-dimethylmorpholin-4-yl]-3-(4-fluorophenyl)quinoxaline-6-carboxamide]	96%	< 100 nM	2%
Cc1ccc(-c2nc3cc(C(=O)NCCCc4ncc[nH]4)ccc3nc2-c2ccc(F)cc2)cn1 [Compound I-486, 2-(4-fluorophenyl)-N-[3-(1H-imidazol-2-yl)propyl]-3-(6-methylpyridin-3-yl)quinoxaline-6-carboxamide]	78%	100 to 500 nM	2%
O=C(NCc1ccc2nccn2c1)c1ccc2nc(-c3ccc(Cl)cc3)c(-c3ccc(Cl)cc3)nc2c1 [Compound I-487, 2,3-bis(4-chlorophenyl)-N-(imidazo[1,2-a]pyridin-6-ylmethyl)quinoxaline-6-carboxamide]	70%	100 to 500 nM	1%
COc1cc(-c2nc3cc(C(=O)NCCCc4ncc[nH]4)ccc3nc2-c2ccc(F)cc2)ccc1F [Compound I-488, 3-(4-fluoro-3-methoxyphenyl)-2-(4-fluorophenyl)-N-[3-(1H-imidazol-2-yl)propyl]quinoxaline-6-carboxamide]	98%	< 100 nM	2%
O=C(NCCCc1ncc[nH]1)c1ccc2nc(OCCc3ccccn3)c(-c3ccc(F)cc3)nc2c1 [Compound I-489, 3-(4-fluorophenyl)-N-[3-(1H-imidazol-2-yl)propyl]-2-[2-(pyridin-2-yl)ethoxy]quinoxaline-6-carboxamide]	> 99%	< 100 nM	2%
O=C(NCCCc1ncc[nH]1)c1ccc2nc(OCC3CC3)c(-c3ccc(F)cc3)nc2c1 [Compound I-490, 2-(cyclopropylmethoxy)-3-(4-fluorophenyl)-N-[3-(1H-imidazol-2-yl)propyl]quinoxaline-6-carboxamide]	95%	< 100 nM	2%
CC(C)Oc1nc2cc(F)c(C(=O)NCCCc3ncc[nH]3)cc2nc1-c1ccc(F)cc1 [Compound I-491, N-(3-(1H-imidazol-2-yl)propyl)-7-fluoro-3-(4-fluorophenyl)-2-isopropoxyquinoxaline-6-carboxamide]	83%	100 to 500 nM	4%
COc1ccc(F)c(-c2nc3cc(C(=O)NCCCc4ncc[nH]4)ccc3nc2OC(C)C)c1 [Compound I-492, 3-(2-fluoro-5-methoxyphenyl)-N-[3-(1H-imidazol-2-yl)propyl]-2-isopropoxyquinoxaline-6-carboxamide]	94%	< 100 nM	3%
Cc1ccc(Cl)cc1-c1nc2cc(C(=O)NCCCc3ncc[nH]3)ccc2nc1-c1ccc(F)cc1 [Compound I-493, 3-(5-chloro-2-methylphenyl)-2-(4-fluorophenyl)-N-[3-(1H-imidazol-2-yl)propyl]quinoxaline-6-carboxamide]	98%	< 100 nM	1%
Cc1ncsc1-c1nc2cc(C(=O)NCCCc3ncc[nH]3)ccc2nc1-c1ccc(F)cc1 [Compound I-494, 2-(4-fluorophenyl)-N-[3-(1H-imidazol-2-yl)propyl]-3-(4-methyl-1,3-thiazol-5-yl)quinoxaline-6-carboxamide]	> 99%	< 100 nM	3%
N#CCCOc1nc2ccc(C(=O)NCCCc3ncc[nH]3)cc2nc1-c1ccc(F)cc1 [Compound I-496, 2-(2-cyanoethoxy)-3-(4-fluorophenyl)-N-[3-(1H-imidazol-2-yl)propyl]quinoxaline-6-carboxamide]	70%	100 to 500 nM	> 99%

— patent US10144742B2 (Millennium Pharmaceuticals, Inc., priority 2014, dated 2018)
